Measurements from ChEMBL document CHEMBL1221228, “Norselic acids A-E, highly oxidized anti-infective steroids that deter mesograzer predation, from the Antarctic sponge Crella sp” (2009).

Assays:
Assay type in all cases: functional
[1] = test system: Escherichia coli; experiment: Antimicrobial activity against Escherichia coli 389 at 30 ug after 18 hrs by agar diffusion method; conditions: Escherichia coli, 389, 18 h; read-out: IZ
[2] = test system: Candida albicans; experiment: Antimicrobial activity against Candida albicans 54 at 30 ug after 18 hrs by agar diffusion method; conditions: Candida albicans, 54, 18 h; read-out: IZ
[3] = test system: Escherichia coli; experiment: Antimicrobial activity against Escherichia coli 442 assessed as hazy zone of inhibition at 30 ug after 18 hrs by agar diffusion method; conditions: Escherichia coli, 442, 18 h; read-out: IZ
[4] = test system: Escherichia coli; experiment: Antimicrobial activity against Escherichia coli 442 at 30 ug after 18 hrs by agar diffusion method; conditions: Escherichia coli, 442, 18 h; read-out: IZ
[5] = test system: Escherichia coli; experiment: Antimicrobial activity against Escherichia coli 389 assessed as hazy zone of inhibition at 30 ug after 18 hrs by agar diffusion method; conditions: Escherichia coli, 389, 18 h; read-out: IZ
[6] = test system: Enterococcus faecium; experiment: Antimicrobial activity against vancomycin-resistant Enterococcus faecium 379 at 30 ug after 18 hrs by agar diffusion method; conditions: Enterococcus faecium, 379, 18 h; read-out: IZ
[7] = test system: Staphylococcus aureus; experiment: Antimicrobial activity against methicillin sensitive Staphylococcus aureus 310 at 30 ug after 18 hrs by agar diffusion method; conditions: Staphylococcus aureus, 310, 18 h; read-out: IZ
[8] = test system: Staphylococcus aureus; experiment: Antimicrobial activity against methicillin sensitive Staphylococcus aureus 375 at 30 ug after 18 hrs by agar diffusion method; conditions: Staphylococcus aureus, 375, 18 h; read-out: IZ
[9] = test system: Leishmania; experiment: Antileishmanial activity against Leishmania
[10] = test system: Candida albicans; experiment: Antimicrobial activity against Candida albicans 54 at 200 ug after 18 hrs by agar diffusion method; conditions: Candida albicans, 54, 18 h; read-out: IZ
[11] = test system: Enterococcus faecium; experiment: Antimicrobial activity against vancomycin-resistant Enterococcus faecium 379 assessed as hazy zone of inhibition at 200 ug after 18 hrs by agar diffusion method; conditions: Enterococcus faecium, 379, 18 h; read-out: IZ
[12] = test system: Odontaster validus; experiment: Reduction of food intake in Odontaster validus assessed as rejection of food pellets after 72 hrs relative to control; parameters: scale not given: the % may be the effect or the level left
[13] = test system: Staphylococcus aureus; experiment: Antimicrobial activity against methicillin sensitive Staphylococcus aureus 375 assessed as very hazy zone of inhibition at 200 ug after 18 hrs by agar diffusion method; conditions: Staphylococcus aureus, 375, 18 h; read-out: IZ
[14] = test system: Staphylococcus aureus; experiment: Antimicrobial activity against methicillin-resistant Staphylococcus aureus 310 assessed as hazy zone of inhibition at 200 ug after 18 hrs by agar diffusion method; conditions: Staphylococcus aureus, 310, 18 h; read-out: IZ
[15] = test system: Escherichia coli; experiment: Antimicrobial activity against Escherichia coli 442 at 200 ug after 18 hrs by agar diffusion method; conditions: Escherichia coli, 442, 18 h; read-out: IZ
[16] = test system: Escherichia coli; experiment: Antimicrobial activity against Escherichia coli 389 at 200 ug after 18 hrs by agar diffusion method; conditions: Escherichia coli, 389, 18 h; read-out: IZ
[17] = test system: Staphylococcus aureus; experiment: Antimicrobial activity against methicillin sensitive Staphylococcus aureus 310 at 1 unit after 18 hrs by agar diffusion method
[18] = test system: Staphylococcus aureus; experiment: Antimicrobial activity against methicillin sensitive Staphylococcus aureus 375 at 1 unit after 18 hrs by agar diffusion method
[19] = test system: Escherichia coli; experiment: Antimicrobial activity against Escherichia coli 442 at 1 unit after 18 hrs by agar diffusion method
[20] = test system: Candida albicans; experiment: Antimicrobial activity against Candida albicans 54 at 1 unit after 18 hrs by agar diffusion method
[21] = test system: Enterococcus faecium; experiment: Antimicrobial activity against vancomycin-resistant Enterococcus faecium 379 at 1 unit after 18 hrs by agar diffusion method
[22] = test system: Staphylococcus aureus; experiment: Antimicrobial activity against methicillin sensitive Staphylococcus aureus 375 assessed as hazy zone of inhibition at 1 unit after 18 hrs by agar diffusion method
[23] = test system: Candida albicans; experiment: Antimicrobial activity against Candida albicans 54 at 5 ug after 18 hrs by agar diffusion method; conditions: Candida albicans, 54, 18 h; read-out: IZ
[24] = test system: Escherichia coli; experiment: Antimicrobial activity against Escherichia coli 442 at 5 ug after 18 hrs by agar diffusion method; conditions: Escherichia coli, 442, 18 h; read-out: IZ
[25] = test system: Escherichia coli; experiment: Antimicrobial activity against Escherichia coli 389 at 5 ug after 18 hrs by agar diffusion method; conditions: Escherichia coli, 389, 18 h; read-out: IZ

## CO[C@@]1(NC(=O)Cc2cccs2)C(=O)N2C(C(=O)O)=C(COC(N)=O)CS[C@@H]21 [CEFOXITIN]
[1]
  zone of inhibition at 30 µg/disc: 22 mm
[2]
  zone of inhibition at 30 µg/disc: 0 mm
[3]
  zone of inhibition at 30 µg/disc: 26 mm
[4]
  zone of inhibition at 30 µg/disc: 18 mm
[5]
  zone of inhibition at 30 µg/disc: 26 mm

## NC[C@H]1O[C@H](O[C@H]2[C@H](O)[C@@H](O[C@H]3O[C@H](CO)[C@@H](O)[C@H](N)[C@H]3O)[C@H](N)C[C@@H]2N)[C@H](O)[C@@H](O)[C@@H]1O [KANAMYCIN]
[1]
  zone of inhibition at 30 µg/disc: 21 mm
[6]
  zone of inhibition at 30 µg/disc: 10 mm
[7]
  zone of inhibition at 30 µg/disc: 0 mm
[2]
  zone of inhibition at 30 µg/disc: 0 mm
[8]
  zone of inhibition at 30 µg/disc: 15 mm
[5]
  zone of inhibition at 30 µg/disc: 37 mm

## C=C(CC[C@@H](C)[C@H]1CC[C@H]2[C@@H]3CCC4=CC(=O)C=C[C@]4(C)[C@H]3CC[C@]12C(=O)O)C(C)C [NORSELIC ACI C]
[9]
  Activity: 2.6 µM

## C=C(C)[C@@](O)(CC)CC[C@@H](C)[C@H]1CC[C@H]2[C@@H]3C=CC4=CC(=O)C=C[C@]4(C)[C@H]3CC[C@]12C(=O)O [NORSELIC ACID A]
[10]
  zone of inhibition at 200 µg/disc: 8 mm
[9]
  Activity: 2.5 µM
[11]
  zone of inhibition at 200 µg/disc: 8 mm
[12]
  Activity: 35%
[13]
  zone of inhibition at 200 µg/disc: 8 mm
[14]
  zone of inhibition at 200 µg/disc: 9 mm
[15]
  zone of inhibition at 200 µg/disc: 0 mm
[16]
  zone of inhibition at 200 µg/disc: 0 mm

## C=C(C)[C@@](O)(CC)CC[C@@H](C)[C@H]1CC[C@H]2[C@@H]3CC[C@H]4CC(=O)C=C[C@]4(C)[C@H]3CC[C@]12C(=O)O [NORSELIC ACID B]
[9]
  Activity: 2.4 µM

## C=C(C)[C@@](O)(CC)CC[C@@H](C)[C@H]1CC[C@H]2[C@@H]3CCC4=CC(=O)CC[C@]4(C)[C@H]3CC[C@]12C(=O)O [NORSELIC ACID D]
[9]
  Activity: 2 µM

## C=C(C)[C@@](CC)(CC[C@@H](C)[C@H]1CC[C@H]2[C@@H]3C=CC4=CC(=O)C=C[C@]4(C)[C@H]3CC[C@]12C(=O)O)OC(C)=O [NORSELIC ACID E]
[9]
  Activity: 3.6 µM

## Cc1onc(-c2ccccc2)c1C(=O)N[C@@H]1C(=O)N2[C@@H]1SC(C)(C)[C@@H]2C(=O)O [OXACILLIN]
[17]
  inhibition zone (IZ): 0 mm
[18]
  inhibition zone (IZ): 18 mm
[19]
  inhibition zone (IZ): 0 mm
[20]
  inhibition zone (IZ): 0 mm
[5]
  zone of inhibition at 30 µg/disc: 8 mm
[21]
  inhibition zone (IZ): 0 mm
[22]
  inhibition zone (IZ): 22 mm

## CO[C@H]1/C=C/O[C@@]2(C)Oc3c(C)c(O)c4c(O)c(c(/C=N/N5CCN(C)CC5)c(O)c4c3C2=O)NC(=O)/C(C)=C\C=C\[C@H](C)[C@H](O)[C@@H](C)[C@@H](O)[C@@H](C)[C@H](OC(C)=O)[C@@H]1C [RIFAMPIN]
[23]
  zone of inhibition at 5 µg/disc: 0 mm
[24]
  zone of inhibition at 5 µg/disc: 6 mm
[25]
  zone of inhibition at 5 µg/disc: 20 mm

## CN[C@H](CC(C)C)C(=O)N[C@H]1C(=O)N[C@@H](CC(N)=O)C(=O)N[C@H]2C(=O)N[C@H]3C(=O)N[C@H](C(=O)N[C@H](C(=O)O)c4cc(O)cc(O)c4-c4cc3ccc4O)[C@H](O)c3ccc(c(Cl)c3)Oc3cc2cc(c3O[C@@H]2O[C@H](CO)[C@@H](O)[C@H](O)[C@H]2O[C@H]2C[C@](C)(N)[C@H](O)[C@H](C)O2)Oc2ccc(cc2Cl)[C@H]1O [VANCOMYCIN]
[1]
  zone of inhibition at 30 µg/disc: 17 mm
[6]
  zone of inhibition at 30 µg/disc: 0 mm
[7]
  zone of inhibition at 30 µg/disc: 15 mm
[2]
  zone of inhibition at 30 µg/disc: 0 mm
[8]
  zone of inhibition at 30 µg/disc: 19 mm
[5]
  zone of inhibition at 30 µg/disc: 25 mm
